Tested on: S. carnosus TM300
Experiment: RNAseq differential gene expression
Assay type: cell-based, Staphylococcus carnosus
Procedure: For the RNAseq experiments, epilancin was added at sub-lethal concentration (0.5x MIC) to S. carnosus TM300 once the cultures reached an OD600 of 0.6. RNA was extracted 40 min after the treatment, using a FastRNA Pro Blue kit (MP Biomedicals). Both treated and parallel untreated samples were collected at the same time. Sequencing was performed at the Carver Biotechnology Center (UIUC). For RNAseq analysis, gene counts were read in to R (v3.1.1; [Team, 2014]), and 14/2441 genes were removed because they had fewer than 32 total counts across the six samples. edgeR’s (v3.6.7) TMM normalization ([Robinson and Oshlack, 2010]) plus negative binomial generalized log-linear model ([McCarthy et al., 2012]) was used to test for differential expression between treated and untreated groups, while accounting for pairing of U and T replicates from three different cultures. p-values were adjusted using the false discovery rate method ([Benjamini and Hochberg, 1995]).

Substance: Epilancin 15X
- fold_change Sca_1501 (hypothetical protein): 2.75
- fold_change Sca_1502 (hypothetical protein): 4.86
- fold_change Sca_1504 (hypothetical protein): 11.43
- fold_change Sca_1505 (hypothetical protein): 11.29
- fold_change Sca_1506 (hypothetical protein): 11.77
- fold_change Sca_1507 (hypothetical protein): 12.4
- fold_change Sca_1508 (hypothetical protein): 10.53
- fold_change Sca_1509 (hypothetical protein): 0.5
- fold_change Sca_1523 (hypothetical protein): 2.05
- fold_change Sca_1526 (hypothetical protein): 2.58
- fold_change Sca_1532 (hypothetical protein): 3.3
- fold_change Sca_1533 (hypothetical protein): 3.51
- fold_change Sca_1534 (hypothetical protein): 2.71
- fold_change Sca_1535 (hypothetical protein): 2.45
- fold_change Sca_1536 (hypothetical protein): 2.13
- fold_change Sca_1587 (hypothetical protein): 2.19
- fold_change Sca_1588 (hypothetical protein): 2.2
- fold_change Sca_1643 (hypothetical protein): 2.32
- fold_change Sca_1645 (hypothetical protein): 2.04
- fold_change Sca_1650 (hypothetical protein): 2.26
- fold_change Sca_1667 (hypothetical protein): 3.97
- fold_change Sca_1668 (hypothetical protein): 3.55
- fold_change Sca_1674 (hypothetical protein): 2.34
- fold_change Sca_1675 (hypothetical protein): 3.21
- fold_change Sca_1681 (hypothetical protein): 2.25
- fold_change Sca_1686 (hypothetical protein): 4.82
- fold_change Sca_1687 (hypothetical protein): 4.15
- fold_change Sca_1689 (hypothetical protein): 2.35
- fold_change Sca_1737 (hypothetical protein): 2.07
- fold_change Sca_1738 (hypothetical protein): 2.11
- fold_change Sca_1755 (hypothetical protein): 3.06
- fold_change Sca_1788 (hypothetical protein): 3.57
- fold_change Sca_1804 (hypothetical protein): 5.16
- fold_change Sca_1805 (hypothetical protein): 2.14
- fold_change Sca_1807 (hypothetical protein): 2.04
- fold_change Sca_1815 (hypothetical protein): 0.5
- fold_change Sca_1838 (hypothetical protein): 2.29
- fold_change Sca_1862 (hypothetical protein): 0.49
- fold_change Sca_1869 (hypothetical protein): 2.26
- fold_change Sca_1903 (hypothetical protein): 4.81
- fold_change Sca_1904 (hypothetical protein): 2.54
- fold_change Sca_1905 (hypothetical protein): 2.54
- fold_change Sca_1906 (hypothetical protein): 2.34
- fold_change Sca_1917 (hypothetical protein): 2.88
- fold_change Sca_1954 (hypothetical protein): 2.15
- fold_change Sca_1959 (hypothetical protein): 7.97
- fold_change Sca_1992 (hypothetical protein): 2.15
- fold_change Sca_2001 (hypothetical protein): 2.07
- fold_change Sca_2004 (hypothetical protein): 2.83
- fold_change Sca_2009 (hypothetical protein): 4.15
- fold_change Sca_2014 (hypothetical protein): 2.23
- fold_change Sca_2018 (hypothetical protein): 2.95
- fold_change Sca_2020 (hypothetical protein): 2.38
- fold_change Sca_2021 (hypothetical protein): 2.73
- fold_change Sca_2022 (hypothetical protein): 2.89
- fold_change Sca_2023 (hypothetical protein): 3.49
- fold_change Sca_2024 (hypothetical protein): 8.09
- fold_change Sca_2051 (hypothetical protein): 2.03
- fold_change Sca_2066 (hypothetical protein): 2.09
- fold_change Sca_2098 (hypothetical protein): 2.16
- fold_change Sca_2099 (hypothetical protein): 2
- fold_change Sca_2122 (hypothetical protein): 2.08
- fold_change Sca_2131 (hypothetical protein): 4.04
- fold_change Sca_2132 (hypothetical protein): 2.49
- fold_change Sca_2133 (hypothetical protein): 2.15
- fold_change Sca_2136 (hypothetical protein): 3
- fold_change Sca_2141 (hypothetical protein): 2.34
- fold_change Sca_2182 (hypothetical protein): 0.5
- fold_change Sca_2186 (hypothetical protein): 2.4
- fold_change Sca_2187 (hypothetical protein): 2.82
- fold_change Sca_2188 (hypothetical protein): 5.77
- fold_change Sca_2193 (hypothetical protein): 5.14
- fold_change Sca_2202 (hypothetical protein): 2.52
- fold_change Sca_2207 (hypothetical protein): 2.06
- fold_change Sca_2209 (hypothetical protein): 2.42
- fold_change Sca_2213 (hypothetical protein): 2.61
- fold_change Sca_2215 (hypothetical protein): 3.52
- fold_change Sca_2221 (hypothetical protein): 2.48
- fold_change Sca_2222 (hypothetical protein): 2.24
- fold_change Sca_2226 (hypothetical protein): 3.16
- fold_change Sca_2228 (hypothetical protein): 3.64
- fold_change Sca_2229 (hypothetical protein): 3.47
- fold_change Sca_2230 (hypothetical protein): 2.6
- fold_change Sca_2231 (hypothetical protein): 2.37
- fold_change Sca_2235 (hypothetical protein): 2.04
- fold_change Sca_2236 (hypothetical protein): 2.08
- fold_change Sca_2253 (hypothetical protein): 0.5
- fold_change Sca_2268 (hypothetical protein): 3.5
- fold_change Sca_2269 (hypothetical protein): 3.56
- fold_change Sca_2273 (hypothetical protein): 11.9
- fold_change Sca_2275 (hypothetical protein): 3.1
- fold_change Sca_2284 (hypothetical protein): 0.49
- fold_change Sca_2295 (hypothetical protein): 4.48
- fold_change Sca_2296 (hypothetical protein): 2.39
- fold_change Sca_2297 (hypothetical protein): 2.21
- fold_change Sca_2299 (hypothetical protein): 5.46
- fold_change Sca_2301 (hypothetical protein): 2.01
- fold_change Sca_2334 (hypothetical protein): 5.35
- fold_change Sca_2337 (hypothetical protein): 2.1
- fold_change Sca_2358 (hypothetical protein): 2.95
- fold_change Sca_2370 (hypothetical protein): 2.53
- fold_change Sca_2373 (hypothetical protein): 3.45
- fold_change Sca_2379 (hypothetical protein): 3.04
- fold_change Sca_2384 (hypothetical protein): 2.31
- fold_change Sca_2385 (hypothetical protein): 3.04
- fold_change Sca_2386 (hypothetical protein): 2.57
- fold_change Sca_2398 (hypothetical protein): 19.58
- fold_change Sca_2399 (hypothetical protein): 20.62
- fold_change Sca_2424 (hypothetical protein): 2.19
- fold_change Sca_2425 (hypothetical protein): 2.2
- fold_change Sca_2426 (hypothetical protein): 3.85
- fold_change Sca_2435 (hypothetical protein): 6.09
- fold_change Sca_2436 (hypothetical protein): 5.9
- fold_change Sca_2437 (hypothetical protein): 4.25
- fold_change Sca_2457 (hypothetical protein): 3.07
- fold_change orf1 (hypothetical protein): 2.79
- fold_change ydfG (hypothetical protein): 5.22
- fold_change Sca_1639 (hypothetical protein, gene fmhA'): 2.76
- fold_change Sca_1638 (hypothetical protein, gene fmhA''): 3.24
- fold_change Sca_1124 (iron uptake regulatory protein, gene fur): 2.1
- fold_change geh (lipase (fragment 1), gene geh'): 2.82
- fold_change geh' (lipase (fragment 2), gene geh''): 2.62
- fold_change Sca_0327 (lysine decarboxlyase family protein): 5.96
- fold_change dnaK (molecular chaperone DnaK): 2.67
- fold_change moeA (molybdopterin biosynthesis protein MoeA): 2.6
